The target of assay [1] is human EB1. The conditions noted are these: read-out: Kd with human EB1, ref Honnappa et al. 2005; cited from earlier work.
Assay [2] concerns the target T1, MBP-fused Drosophila EB1 (Drosophila, UniProt Q9XZ57 1-290).
T1 sequence (looked up): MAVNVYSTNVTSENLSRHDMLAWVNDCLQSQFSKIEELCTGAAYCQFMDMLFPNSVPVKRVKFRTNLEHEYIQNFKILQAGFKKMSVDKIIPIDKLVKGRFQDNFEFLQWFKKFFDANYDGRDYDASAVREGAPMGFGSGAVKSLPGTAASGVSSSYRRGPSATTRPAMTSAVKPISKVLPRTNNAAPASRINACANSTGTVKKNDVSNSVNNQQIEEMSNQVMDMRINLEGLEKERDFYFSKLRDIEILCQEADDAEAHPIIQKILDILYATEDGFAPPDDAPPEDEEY
The assay is described as follows: ITC. (ITC needs no label: the signal is the heat of the interaction.)

The Kd is the equilibrium constant for the complex coming apart. “adenomatous polyposis coli protein: native human EB1-interacting protein”: in assay [1], the Kd was about 5000 nM.

B1: aptamer Perfect peptide (peptide)
peptide: RTRGRSRIPRWVGRRG
On to B1, for which the Kd in assay [2] was about 570 nM.

Source of the values: publication PMC3967968 (Molecular Biology of the Cell, 2014).
